Structures can show the parent of a compound that is named as a salt.
Test system: eyelids
Assay: topical application to the eyelids (eyelid retraction / eye-widening)
Format: in vivo
Conditions: topically applied, alone or in combination
From the text: Topical treatments to which the current application is directed include ointments, creams, and solutions that contain one or more of the compounds travoprost, dorzolamide hydrochloride, and timolol maleate, alone or in combination, and/or one or more chemically-related compounds and may also include pure forms of various types of prostaglandin, synthetic prostaglandin, and synthetic prostaglandin analogues.

Q: For `CCNC(=O)CCCC=CCC1C(O)CC(O)C1C=CC(O)CCc1ccccc1` (stereo not drawn) [bimatoprost, 7-[3,5-dihydroxy-2-(3-hydroxy-5-phenyl-pent-1-enyl)-cyclopentyl]-N-ethyl-hept-5-enamide], which “eyelid retraction after topical application to the eyelids” value (“eyelid retraction” below) is on record?
A: cause the eyelids to retract more completely

Q: `CCN[C@H]1C[C@H](C)S(=O)(=O)c2sc(S(N)(=O)=O)cc21` [dorzolamide hydrochloride, (4S,6S)-2-ethylamino-4-methyl-5,5-dioxo-5λ^6,7dithiabicyclo[4.3.0] nona-8,10-diene-8-sulfonamide] was tested. Which “eyelid retraction” value did it give?
A: cause the eyelids to retract more completely

Q: `CC(C)OC(=O)CCC/C=C\C[C@@H]1[C@@H](CC[C@@H](O)CCc2ccccc2)[C@H](O)C[C@@H]1O` [latanoprost, isopropyl (Z)-7-[(1R,2R,3R,5S)-3,5-dihydroxy-2-[(3R)3-hydroxy-5-phenylpentyl]-cyclopentyl] hept-5-enoate] was tested. Which “eyelid retraction” value did it give?
A: cause the eyelids to retract more completely

Q: `CC(C)(C)NC[C@H](O)COc1nsnc1N1CCOCC1` [timolol maleate, (S)-1-(tert-butylamino)-3-[(4-morpholin-4-yl-1,2,5-thiadiazol-3-yl)oxy]propan-2-ol] was tested. Which “eyelid retraction” value did it give?
A: cause the eyelids to retract more completely

Q: For `CC(C)OC(=O)CCCC=CCC1C(O)CC(O)C1C=CC(O)COc1cccc(C(F)(F)F)c1` (stereo not drawn) [travoprost, propan-2-yl 7-[3,5-dihydroxy-2-[3-hydroxy-4-[3-(trifluoromethyl)phenoxy]-but-1-enyl]-cyclopentyl]hept-5-enoate], which “eyelid retraction” value is on record?
A: cause the eyelids to retract more completely

Q: Which “eyelid retraction” value does the source give for `CCCCCCCC(=O)CC[C@@H]1[C@@H](C/C=C\CCCC(=O)OC(C)C)[C@@H](O)C[C@H]1O` [unoprostone, isopropyl (Z)-7-[(1R,2R,3R,5 S)-3,5-dihydroxy-2-(3-oxodecyl)cyclopentyl] hept-5-enoic acid] here?
A: cause the eyelids to retract more completely

From patent US20140303166A1, “COSMETIC METHOD FOR CHANGING THE APPEARANCE OF EYES” (priority 2013, published 2014)
